Consider two compounds from patent publication US20250382344A1, “Soluble GLP1/GIP/NPY2 Receptor Triple Agonists” (Boehringer Ingelheim International GmH, priority 2024, published 2025).

Read-outs that look alike come from different tables or passages of the source.

The solubility is the concentration that dissolves in the medium under given conditions.

The target of data set [1] is T1, hGLP1R (Homo sapiens, UniProt P43220).
T1 construct: expressed in transfected cells; host or cells: HEK-293 CRE-luciferase reporter cells
As to the kind of experiment: hGLP1R CreLuc assay in 0.5% and 100% plasma (HEK-293 CRE-luciferase reporter cells). Type of data set: cell-based. To be noted: HEK-293 reporter cells. (A reporter such as luciferase makes a cellular process visible.)

Data set [2] addresses T2, hGIPR (Homo sapiens, UniProt P48546).
T2 construct: expressed in transfected cells; host or cells: CHO CRE-luciferase reporter cells
T2 sequence (P48546 22-466): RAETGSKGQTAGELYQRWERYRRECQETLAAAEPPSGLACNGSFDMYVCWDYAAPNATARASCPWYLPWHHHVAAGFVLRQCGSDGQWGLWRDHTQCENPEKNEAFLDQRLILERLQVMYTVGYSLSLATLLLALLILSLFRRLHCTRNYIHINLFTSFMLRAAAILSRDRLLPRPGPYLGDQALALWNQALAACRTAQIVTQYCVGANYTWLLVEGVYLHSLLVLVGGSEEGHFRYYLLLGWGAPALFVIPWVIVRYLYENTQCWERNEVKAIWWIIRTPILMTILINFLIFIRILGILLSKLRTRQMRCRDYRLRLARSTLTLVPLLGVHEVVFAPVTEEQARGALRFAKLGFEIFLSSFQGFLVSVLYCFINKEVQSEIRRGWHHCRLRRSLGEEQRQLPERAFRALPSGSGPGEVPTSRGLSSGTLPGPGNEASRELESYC
Nature of the data set: hGIPR CreLuc assay in 0.5% and 100% plasma (CHO CRE-luciferase reporter cells). Type of data set: cell-based.

A short description of data set [3]: Solubility in 0.1 M phosphate buffer at pH 7. It is filed as physicochemical. To be noted: 0.1 M phosphate buffer at pH 7, 10 mg/mL final peptide concentration, shaking 2 hours at room temperature, peptides as TFA-salts; measured sample pH 6.5-7.0.
The mark [4] stands for this setting: 0.5% human plasma, read-out: hGIPR 0.5% hP.

T1 sequence (P43220 24-463): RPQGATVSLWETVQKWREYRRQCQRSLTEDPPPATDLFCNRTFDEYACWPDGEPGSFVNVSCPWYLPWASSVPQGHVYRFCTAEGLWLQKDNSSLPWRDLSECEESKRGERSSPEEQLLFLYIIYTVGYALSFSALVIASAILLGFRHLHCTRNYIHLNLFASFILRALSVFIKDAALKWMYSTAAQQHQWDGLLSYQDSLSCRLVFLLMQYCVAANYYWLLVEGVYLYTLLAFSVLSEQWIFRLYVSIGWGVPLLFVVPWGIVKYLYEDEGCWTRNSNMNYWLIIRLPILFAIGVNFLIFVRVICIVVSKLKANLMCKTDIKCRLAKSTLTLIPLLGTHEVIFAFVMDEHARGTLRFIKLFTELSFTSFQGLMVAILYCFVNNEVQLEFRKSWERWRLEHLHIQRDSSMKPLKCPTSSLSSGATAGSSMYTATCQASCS

As for `CC[C@H](C)[C@H](NC(=O)[C@H](CC(C)C)NC(=O)[C@H](Cc1c[nH]cn1)NC(=O)[C@H](CCCNC(=N)N)NC(=O)[C@@H](NC(=O)[C@H](Cc1ccccc1)NC(=O)[C@H](C)NC(=O)C(C)(C)NC(=O)[C@H](CCC(N)=O)NC(=O)[C@H](C)NC(=O)[C@H](CCC(N)=O)NC(=O)[C@H](CCCCN)NC(=O)[C@H](CCC(=O)O)NC(=O)[C@H](CC(C)C)NC(=O)C(C)(C)NC(=O)[C@@H](NC(=O)[C@H](CO)NC(=O)[C@H](Cc1ccc(O)cc1)NC(=O)[C@H](CC(=O)O)NC(=O)[C@H](CO)NC(=O)[C@@H](NC(=O)[C@H](Cc1ccccc1)NC(=O)[C@@H](NC(=O)CNC(=O)[C@H](CCC(=O)O)NC(=O)C(C)(C)NC(=O)[C@@H](N)Cc1ccc(O)cc1)[C@@H](C)O)[C@@H](C)O)[C@@H](C)CC)C(C)C)C(=O)N[C@@H](CC(N)=O)C(=O)N[C@@H](CCCCNC(=O)[C@@H](N)CCCCNC(=O)CC[C@H](NC(=O)CC[C@H](NC(=O)CC[C@H](NC(=O)CC[C@H](NC(=O)CC[C@H](NC(=O)CC[C@H](NC(=O)CCCCCCCCCCCCCCCCC(=O)O)C(=O)O)C(=O)O)C(=O)O)C(=O)O)C(=O)O)C(=O)O)C(=O)NC(C)(C)C(=O)N[C@H](C(=O)N[C@@H](CCCNC(=N)N)C(=O)N[C@@H](CCC(N)=O)C(=O)N[C@@H](CCCNC(=N)N)C(=O)N(C)[C@@H](Cc1ccc(O)cc1)C(N)=O)[C@@H](C)O` [Compound 116, Y-Aib-E-G-T-F-T-S-D-Y-S-I-Aib-L-E-K-Q-A-Q-Aib-A-F-V-R-H-L-I-N-K(1,3)-Aib-T-R-Q-R-NMeY-NH2.C18DA-gGlu-gGlu-gGlu-gGlu-gGlu-gGlu-eLys(1,2)], the EC50 in data set [1] (0.5% human plasma, read-out: hGLP1R 0.5% hP) was found to be 2 nM; in data set [2] (setting [4]) it was 0.3 nM; in data set [2] (100% human plasma, read-out: hGIPR 100% hP), 3.4 nM. In addition, the solubility at 2 h in data set [3] was 4200 µg/mL.

For `CC[C@H](C)[C@H](NC(=O)[C@H](CC(C)C)NC(=O)[C@H](Cc1c[nH]cn1)NC(=O)[C@H](CCCNC(=N)N)NC(=O)[C@@H](NC(=O)[C@H](Cc1ccccc1)NC(=O)[C@H](C)NC(=O)C(C)(C)NC(=O)[C@H](CCC(N)=O)NC(=O)[C@H](C)NC(=O)[C@H](CCC(N)=O)NC(=O)[C@H](CCCCN)NC(=O)[C@H](CCC(=O)O)NC(=O)[C@H](CC(C)C)NC(=O)C(C)(C)NC(=O)[C@@H](NC(=O)[C@H](CO)NC(=O)[C@H](Cc1ccc(O)cc1)NC(=O)[C@H](CC(=O)O)NC(=O)[C@H](CO)NC(=O)[C@@H](NC(=O)[C@H](Cc1ccccc1)NC(=O)[C@@H](NC(=O)CNC(=O)[C@H](CCC(=O)O)NC(=O)C(C)(C)NC(=O)[C@@H](N)Cc1ccc(O)cc1)[C@@H](C)O)[C@@H](C)O)[C@@H](C)CC)C(C)C)C(=O)N[C@@H](CC(N)=O)C(=O)N[C@@H](CCCCNC(=O)[C@@H](N)CCCCNC(=O)CC[C@H](NC(=O)CC[C@H](NC(=O)CC[C@H](NC(=O)CC[C@H](NC(=O)CC[C@H](NC(=O)CC[C@H](NC(=O)CCCCCCCCCCCCCCCCC(=O)O)C(=O)O)C(=O)O)C(=O)O)C(=O)O)C(=O)O)C(=O)O)C(=O)N[C@@H](CC(C)C)C(=O)N[C@H](C(=O)N[C@@H](CCCNC(=N)N)C(=O)N[C@@H](CCC(N)=O)C(=O)N[C@@H](CCCNC(=N)N)C(=O)N[C@@H](Cc1ccc(O)cc1)C(N)=O)[C@@H](C)O` [Compound 127, Y-Aib-E-G-T-F-T-S-D-Y-S-I-Aib-L-E-K-Q-A-Q-Aib-A-F-V-R-H-L-I-N-K(1,3)-L-T-R-Q-R-Y-NH2.C18DA-gGlu-gGlu-gGlu-gGlu-gGlu-gGlu-eLys(1,2)], the EC50 in data set [1] (100% human plasma, read-out: hGLP1R 100% hP) came out at 4 nM; in data set [2] (setting [4]) it was 0.4 nM. Moreover, the solubility at 2 h in data set [3] is 4500 µg/mL.
